Reference: patent US12568960B2, “Adjuvant combinations as foliar uptake accelerator for herbicidal compositions” (Bayer Aktiengesellschaft, priority 2019, dated 2026)

Tests used:
cuticula of apple leaves = assay: Membrane (cuticle) penetration test
Experimental: The properties of the adjuvant combinations according to the invention as penetration enhancers were measured in a membrane penetration test on the cuticula of apple leaves.
Determination of bioavailability of various herbicides, plant growth regulators (PGRs) and safeners by cuticle penetration test.
The leaf cuticles were isolated enzymatically as described in the literature. The stomata-free cuticles were first dried under air and introduced into stainless steel diffusion cells. After the application of the test liquids to the original top side of the leaf and evaporation of liquid, the diffusion cells were transferred into thermostat blocks and loaded with water. At regular intervals, aliquot samples were taken, and the amount of active ingredient diffused was determined by means of HPLC. […] Detection was effected with a DAD detector. The results given in each case are the geometric penetration averages at the average measurement times. According to the variance, 10 repeat measurements were conducted.
Typically, a spray solution of the active ingredient (0.5 g of active ingredient/l) was produced. An aliquot was applied to an apple cuticle and left to dry. The operation was repeated 10 times. The amount absorbed through the cuticles in the uptake solution is determined by HPLC as described above. The measurements were made after 0, 6, 12, 24, 36 or 48 h.

[1] = Dynamic surface tension, bubble pressure method; type: physicochemical; settings: 6 g/l
Experimental: Dynamic surface tension was determined via the bubble pressure method (BP2100 tensiometer, Krüss).

[2] = Table 8, mefenpyr-diethyl SC formulation, no adjuvant
[3] = Table 9, mefenpyr-diethyl SC formulation, no adjuvant
[4] = Table 31, Compound 6 WP20 formulation, no adjuvant
[5] = Table 7, bixlozone standard SC formulation, no adjuvant
[6] = Table 19, bixlozone SC formulation, no adjuvant
[7] = Table 26, bixlozone EC formulation, no adjuvant
[8] = Table 20, prohexadione-Ca EC formulation, no adjuvant
[9] = Table 12, Rinskor EC formulation, adjuvant 2 g/l
[10] = Table 24, Compound 3 WP20 formulation, cuticle from 2016, no adjuvant
[11] = Table 30, Compound 5 WP20 formulation, no adjuvant

CCOC(=O)C1=NN(c2ccc(Cl)cc2Cl)C(C)(C(=O)OCC)C1 (racemic) [Mefenpyr-diethyl, Diethyl (RS)-1-(2,4-dichlorophenyl)-4,5-dihydro-5-methyl-1H-pyrazole-3,5-dicarboxylate]
Cuticle penetration 12 h in % (cuticula of apple leaves; [2]): 4%
Cuticle penetration 24 h in % (cuticula of apple leaves; [2]): 9%
Cuticle penetration 48 h in % (cuticula of apple leaves; [2]): 16%
Cuticle penetration 24 h in % (cuticula of apple leaves; [3]): 17%
Cuticle penetration 48 h in % (cuticula of apple leaves; [3]): 59%

CS(=O)(=O)c1ccc(C(=O)C2C(=O)CCCC2=O)c(Cl)c1COCC(F)(F)F [Tembotrione]
Cuticle penetration 6 h in % (cuticula of apple leaves; apple, 6 h, 0.5 g/l): 0%
Cuticle penetration 12 h in % (cuticula of apple leaves; apple, 12 h, 0.5 g/l): 0%

Cc1ccc2c(c1)C(Nc1nc3n(n1)CCCCS3)CCC2 (stereo not drawn) [Compound 6]
Cuticle penetration 12 h in % (cuticula of apple leaves; [4]): 0%
Cuticle penetration 24 h in % (cuticula of apple leaves; [4]): 0%
Cuticle penetration 48 h in % (cuticula of apple leaves; [4]): 2%

CC1(C)CON(Cc2ccc(Cl)cc2Cl)C1=O [Bixlozone, 2-(2,4-Dichlorobenzyl)-4,4-dimethylisoxazolidin-3-one]
Cuticle penetration 6 h in % (cuticula of apple leaves; [5]): 21%
Cuticle penetration 12 h in % (cuticula of apple leaves; [5]): 42%
Cuticle penetration 24 h in % (cuticula of apple leaves; [5]): 62%
Cuticle penetration 24 h in % (cuticula of apple leaves; [6]): 24%
Cuticle penetration 48 h in % (cuticula of apple leaves; [6]): 73%
Cuticle penetration 6 h in % (cuticula of apple leaves; [7]): 27%
Cuticle penetration 12 h in % (cuticula of apple leaves; [7]): 29%
Cuticle penetration 24 h in % (cuticula of apple leaves; [7]): 31%

Cn1nc(C(F)(F)F)c(CS(=O)(=O)C2=NOC(C)(C)C2)c1OC(F)F [Pyroxasulfone, 3-[5-(Difluoromethoxy)-1-methyl-3-(trifluoromethyl)pyrazol-4-ylmethylsulfonyl]-4,5-dihydro-5,5-dimethyl-1,2-oxazole]
Cuticle penetration 24 h in % (cuticula of apple leaves; apple, 24 h, 0.5 g/l): 2%

CCC(=O)C1=C([O-])CC(C(=O)[O-])CC1=O.[Ca+2] (stereo not drawn) [Prohexadione-Ca, Calcium 3-oxido-5-oxo-4-propionyl-cyclohex-3-enecarboxylate]
Cuticle penetration 24 h in % (cuticula of apple leaves; [8]): 18%
Cuticle penetration 48 h in % (cuticula of apple leaves; [8]): 44%

Ammonium sulfate [AMS]
Cuticle penetration 24 h in % (cuticula of apple leaves; [9]): 5%
Cuticle penetration 48 h in % (cuticula of apple leaves; [9]): 15%

CCCCC(CC)COP(=O)(OCC(CC)CCCC)OCC(CC)CCCC (stereo not drawn) [TEHP, Tris(2-ethylhexyl) phosphate]
Dynamic surface tension 20 ms [1]: 71.7 mN/m
Dynamic surface tension 50 ms [1]: 71.7 mN/m
Dynamic surface tension 200 ms [1]: 71.6 mN/m
Dynamic surface tension 500 ms [1]: 71.5 mN/m
Penetration enhancement (in words) (cuticula of apple leaves; mefenpyr-diethyl, summary of Tables 8 and 9): has better penetration-enhancing properties compared to TBEP in the combination

CCCCOCCOP(=O)(OCCOCCCC)OCCOCCCC [TBEP, Tributoxyethyl phosphate]
Penetration enhancement (in words) (cuticula of apple leaves; bixlozone, summary of Table 7): shows distinctly lower uptake of bixlozone than TEHP
Penetration enhancement (in words) (cuticula of apple leaves; tembotrione (Laudis SC), summary of Tables 5 and 6): does not enhance the uptake of tembotrione

NC(=O)c1ccc(C(F)(F)F)nc1O [Compound 3]
Cuticle penetration 12 h in % (cuticula of apple leaves; [10]): 0%
Cuticle penetration 24 h in % (cuticula of apple leaves; [10]): 0%
Cuticle penetration 48 h in % (cuticula of apple leaves; [10]): 0%

Cc1ccc2c(c1)C(Nc1ncc(C(C)(C)O)cn1)[C@@H](C)C2 (stereo partly drawn) [Compound 5]
Cuticle penetration 12 h in % (cuticula of apple leaves; [11]): 6%
Cuticle penetration 24 h in % (cuticula of apple leaves; [11]): 14%
Cuticle penetration 48 h in % (cuticula of apple leaves; [11]): 52%
